Literature values as cited in paper PMC13472183 (Journal of drug delivery science and technology, 2022).

Conditions: previous reported value, without the EDA modification

## NH2-(VPGFG)6G-(GPO)7GG-CONH2 [F6-GPO7]
  Tm (triple helix melting temperature): 50 °C
